What was measured:
[1] = biological target: Neuronal acetylcholine receptor; alpha4/beta2 (Homo sapiens, UniProt P17787+P43681); assay: Displacement of [3H]cytisine from human alpha4beta2 nAChR expressed in CHOK1 cell membrane by microbeta scintillation counting method; format: cell membranes, CHO-K1
[2] = Ratio of drug level in brain to plasma in Wistar rat at 10 ml/kg, po or 2 ml/kg, iv measured upto 24 hrs by LC-MS/MS analysis; format: ADME, organism-based; conditions: brain and plasma, read-out: BPR
Rattus norvegicus [3] = assay: Antidepressant activity in Wistar rat assessed as immobility time at 3.0 mg/kg, po measured for 5 mins by forced swim test (reference value: 241.9 to 281.6 sec); format: functional
Cytochrome P450 3A4 = Cytochrome P450 3A4 (Homo sapiens, UniProt P08684); assay: Inhibition of CYP3A4 in human liver microsomes using midazolam as substrate incubated for 2 min in presence of NADPH by LC-MS/MS analysis; format: ADME
Sequence of Cytochrome P450 3A4 (P08684 whole entry): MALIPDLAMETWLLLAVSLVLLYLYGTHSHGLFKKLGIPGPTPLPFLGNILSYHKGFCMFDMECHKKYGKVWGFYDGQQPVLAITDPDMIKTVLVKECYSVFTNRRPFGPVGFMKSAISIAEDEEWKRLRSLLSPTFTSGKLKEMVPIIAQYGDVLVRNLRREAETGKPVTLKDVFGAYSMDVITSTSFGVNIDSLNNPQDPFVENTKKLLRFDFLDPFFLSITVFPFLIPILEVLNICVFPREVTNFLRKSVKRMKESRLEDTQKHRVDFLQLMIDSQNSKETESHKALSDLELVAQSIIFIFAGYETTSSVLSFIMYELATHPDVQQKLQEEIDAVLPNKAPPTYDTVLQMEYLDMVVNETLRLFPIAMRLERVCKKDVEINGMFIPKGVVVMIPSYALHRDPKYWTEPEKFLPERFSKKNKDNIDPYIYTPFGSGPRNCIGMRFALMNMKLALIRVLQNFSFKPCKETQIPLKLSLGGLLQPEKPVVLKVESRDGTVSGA

Cytochrome P450 2D6 = Cytochrome P450 2D6 (Homo sapiens, UniProt P10635); assay: Inhibition of CYP2D6 in human liver microsomes using dextromethorphan as substrate incubated for 12 min in presence of NADPH by LC-MS/MS analysis; format: ADME
Sequence of Cytochrome P450 2D6 (P10635 whole entry): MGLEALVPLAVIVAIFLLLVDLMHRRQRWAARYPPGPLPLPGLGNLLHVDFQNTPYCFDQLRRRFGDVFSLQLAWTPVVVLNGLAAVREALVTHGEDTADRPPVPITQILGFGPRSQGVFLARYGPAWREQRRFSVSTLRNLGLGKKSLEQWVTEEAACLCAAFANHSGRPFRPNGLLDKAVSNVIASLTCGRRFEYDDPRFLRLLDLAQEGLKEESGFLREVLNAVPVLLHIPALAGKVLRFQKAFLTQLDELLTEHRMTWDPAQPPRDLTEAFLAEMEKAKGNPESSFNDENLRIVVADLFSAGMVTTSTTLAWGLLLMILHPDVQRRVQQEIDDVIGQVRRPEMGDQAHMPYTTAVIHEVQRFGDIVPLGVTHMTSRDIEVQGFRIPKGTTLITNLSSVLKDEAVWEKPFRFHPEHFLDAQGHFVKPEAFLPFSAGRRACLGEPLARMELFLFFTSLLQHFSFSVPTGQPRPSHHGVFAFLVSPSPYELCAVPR

[4] = Half life in Wistar rat at 10 ml/kg, po or 2 ml/kg, iv measured upto 24 hrs by LC-MS/MS analysis; format: ADME, organism-based; conditions: in vivo
[5] = AUC in Wistar rat at 10 ml/kg, po or 2 ml/kg, iv measured upto 24 hrs by LC-MS/MS analysis; format: ADME, organism-based; conditions: in vivo
[6] = Metabolic stability in rat liver microsomes assessed as compound metabolism incubated for 30 mins in presence of NADPH by LC-MS/MS analysis; format: ADME, Microsome; conditions: read-out: Drug metabolism
[7] = biological target: Neuronal acetylcholine receptor; alpha3/beta4 (Homo sapiens, UniProt P30926+P32297); assay: Displacement of [3H]epibatidine from human alpha3beta4 nAChR expressed in IMR32 cell membrane by microbeta scintillation counting method; format: cell membranes, IMR-32
Sequence of Neuronal acetylcholine receptor; alpha3/beta4 (P30926 whole entry): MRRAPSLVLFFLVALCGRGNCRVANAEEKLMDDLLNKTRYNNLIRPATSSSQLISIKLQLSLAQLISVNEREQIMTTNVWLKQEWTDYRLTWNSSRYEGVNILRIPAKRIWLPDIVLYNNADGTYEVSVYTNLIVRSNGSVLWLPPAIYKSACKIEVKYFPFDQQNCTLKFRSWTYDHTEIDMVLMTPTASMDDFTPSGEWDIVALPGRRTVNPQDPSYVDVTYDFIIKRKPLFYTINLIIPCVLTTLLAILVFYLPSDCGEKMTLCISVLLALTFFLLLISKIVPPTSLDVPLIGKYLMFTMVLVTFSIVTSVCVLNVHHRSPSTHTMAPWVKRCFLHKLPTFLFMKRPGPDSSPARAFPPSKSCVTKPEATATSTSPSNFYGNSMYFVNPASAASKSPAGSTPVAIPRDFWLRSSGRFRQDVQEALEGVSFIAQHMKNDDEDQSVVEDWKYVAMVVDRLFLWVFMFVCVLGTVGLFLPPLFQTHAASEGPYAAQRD
Sequence of Neuronal acetylcholine receptor; alpha3/beta4 (P32297 whole entry): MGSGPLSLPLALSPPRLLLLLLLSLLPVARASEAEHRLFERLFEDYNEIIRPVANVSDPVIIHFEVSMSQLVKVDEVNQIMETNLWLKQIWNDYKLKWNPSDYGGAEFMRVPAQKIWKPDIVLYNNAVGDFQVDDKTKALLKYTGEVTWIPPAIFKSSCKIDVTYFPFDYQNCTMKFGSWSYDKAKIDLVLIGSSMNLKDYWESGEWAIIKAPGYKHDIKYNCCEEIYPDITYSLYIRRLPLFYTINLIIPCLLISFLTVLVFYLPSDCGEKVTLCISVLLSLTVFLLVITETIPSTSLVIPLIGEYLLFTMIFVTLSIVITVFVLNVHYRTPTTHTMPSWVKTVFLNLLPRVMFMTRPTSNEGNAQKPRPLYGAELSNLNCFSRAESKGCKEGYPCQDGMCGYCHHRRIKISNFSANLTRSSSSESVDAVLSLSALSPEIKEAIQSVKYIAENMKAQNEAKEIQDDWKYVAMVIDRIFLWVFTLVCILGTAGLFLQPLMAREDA

[8] = Oral bioavailability in Wistar rat at 10 ml/kg measured upto 24 hrs by LC-MS/MS analysis; format: ADME, organism-based; conditions: in vivo
Rattus norvegicus [9] = assay: Antidepressant activity in Wistar rat assessed as immobility time at 10.0 mg/kg, po measured for 5 mins by forced swim test (reference value: 241.9 to 281.6 sec); format: functional
[10] = Metabolic stability in human liver microsomes assessed as compound metabolism incubated for 30 mins in presence of NADPH by LC-MS/MS analysis; format: ADME, Microsome; conditions: read-out: Drug metabolism
[11] = Cmax in Wistar rat at 10 ml/kg, po or 2 ml/kg, iv measured upto 24 hrs by LC-MS/MS analysis; format: ADME, organism-based; conditions: in vivo

Sequence of Neuronal acetylcholine receptor; alpha4/beta2 (P17787 whole entry): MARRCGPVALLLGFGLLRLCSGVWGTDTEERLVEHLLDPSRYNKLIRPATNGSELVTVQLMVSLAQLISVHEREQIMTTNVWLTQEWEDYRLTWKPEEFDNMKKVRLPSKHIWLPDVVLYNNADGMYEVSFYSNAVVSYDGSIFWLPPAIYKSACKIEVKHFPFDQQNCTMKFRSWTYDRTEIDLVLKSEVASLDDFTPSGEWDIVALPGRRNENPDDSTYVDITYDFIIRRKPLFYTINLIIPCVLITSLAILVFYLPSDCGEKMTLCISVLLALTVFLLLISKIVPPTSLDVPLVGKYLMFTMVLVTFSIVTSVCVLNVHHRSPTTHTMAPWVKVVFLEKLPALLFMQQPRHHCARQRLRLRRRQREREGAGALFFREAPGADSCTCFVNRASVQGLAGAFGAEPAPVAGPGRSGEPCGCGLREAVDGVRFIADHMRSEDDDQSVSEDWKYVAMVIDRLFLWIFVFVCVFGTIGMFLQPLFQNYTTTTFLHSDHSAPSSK
Sequence of Neuronal acetylcholine receptor; alpha4/beta2 (P43681 whole entry): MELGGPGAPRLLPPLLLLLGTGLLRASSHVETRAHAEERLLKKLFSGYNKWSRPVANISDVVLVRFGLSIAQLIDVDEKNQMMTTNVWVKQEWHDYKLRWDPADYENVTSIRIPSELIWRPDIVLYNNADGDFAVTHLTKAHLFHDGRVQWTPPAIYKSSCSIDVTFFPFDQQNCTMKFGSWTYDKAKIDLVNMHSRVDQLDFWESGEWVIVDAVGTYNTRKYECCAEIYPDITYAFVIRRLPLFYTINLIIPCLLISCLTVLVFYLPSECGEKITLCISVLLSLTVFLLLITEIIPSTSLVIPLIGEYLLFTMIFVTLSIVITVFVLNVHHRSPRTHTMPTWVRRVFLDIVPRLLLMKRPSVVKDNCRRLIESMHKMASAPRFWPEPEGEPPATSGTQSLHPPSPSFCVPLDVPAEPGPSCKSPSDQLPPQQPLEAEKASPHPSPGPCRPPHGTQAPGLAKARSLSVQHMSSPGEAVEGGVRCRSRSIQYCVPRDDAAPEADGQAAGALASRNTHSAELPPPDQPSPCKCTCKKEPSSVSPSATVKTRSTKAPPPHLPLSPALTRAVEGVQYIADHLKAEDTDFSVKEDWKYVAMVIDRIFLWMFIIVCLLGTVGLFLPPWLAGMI

Clc1ccc(OC[C@H]2NC[C@@H]3C[C@@H]32)cn1
Ki [1]: 0.2 nM

COc1ccc(OC[C@@H]2C[C@@H]3C[C@@H]3N2)cn1
Ki [1]: 4.7 nM

C[C@@]12C[C@@H]1CC(COc1cccnc1)N2 (stereo partly drawn)
Ki [1]: 3.6 nM

Cl.c1cncc(OC[C@@H]2C[C@H]3C[C@H]3N2)c1
Kp at 24 h [2]: 3.8
Time (Rattus norvegicus [3]): 231 s
IC50 (Cytochrome P450 3A4): > 45000 nM
IC50 (Cytochrome P450 2D6): 26200 nM
half-life [4]: 4.19 h
AUC at 24 h [5]: 10900 ng·h/mL
Ki [1]: 7.9 nM
metabolised at 0.5 h [6]: 17.9%
Ki [7]: > 10000 nM
bioavailability [8]: 92%
Time (Rattus norvegicus [9]): 210.4 s
metabolised at 0.5 h [10]: 12.1%
Cmax [11]: 7610 ng/mL

Cl.Clc1cncc(OC[C@@H]2C[C@H]3C[C@H]3N2)c1
Kp at 24 h [2]: 3.79
Time (Rattus norvegicus [3]): 249.9 s
IC50 (Cytochrome P450 3A4): > 45000 nM
IC50 (Cytochrome P450 2D6): > 45000 nM
half-life [4]: 1.07 h
AUC at 24 h [5]: 1190 ng·h/mL
Ki [1]: 0.19 nM
metabolised at 0.5 h [6]: 40.4%
Ki [7]: > 10000 nM
bioavailability [8]: 50%
Time (Rattus norvegicus [9]): 241.7 s
metabolised at 0.5 h [10]: 40.7%
Cmax [11]: 949 ng/mL

C[C@@]12C[C@@H]1CC(COc1cccnc1Cl)N2 (stereo partly drawn)
Ki [1]: > 10000 nM

Clc1ncccc1OC[C@@H]1CC[C@H]2C[C@H]2N1
Ki [1]: > 10000 nM

Clc1cc(OC[C@@H]2C[C@H]3C[C@H]3N2)cnc1Cl
Ki [1]: 149 nM

CN1[C@H](COc2cccnc2Cl)C[C@H]2C[C@H]21
Ki [1]: 28.1 nM

Clc1ccc(OCC[C@@H]2C[C@H]3C[C@H]3N2)cn1
Ki [1]: 327 nM

COc1ccc(OC[C@@H]2C[C@H]3C[C@H]3N2)cn1
Ki [1]: > 10000 nM

c1cncc(OC[C@H]2NC[C@@H]3C[C@@H]32)c1
IC50 (Cytochrome P450 3A4): 21100 nM
IC50 (Cytochrome P450 2D6): > 45000 nM
Ki [1]: 0.14 nM
metabolised at 0.5 h [6]: 6.2%
Ki [7]: 26.4 nM
metabolised at 0.5 h [10]: 6.7%

Clc1cncc(OCC[C@@H]2C[C@H]3C[C@H]3N2)c1
Ki [1]: 395 nM

CN1[C@H](COc2cccnc2)C[C@H]2C[C@H]21
Ki [1]: 5.5 nM

Brc1cncc(OC[C@@H]2C[C@H]3C[C@H]3N2)c1
Ki [1]: 6.4 nM

CN1[C@H](COc2ccc(F)nc2)C[C@H]2C[C@H]21
Ki [1]: 1.1 nM

Cc1nnc(-c2cncc(OC[C@@H]3C[C@H]4C[C@H]4N3)c2)o1
Ki [1]: 407 nM

C[C@@]12C[C@@H]1CC(COc1cncc(Cl)c1)N2 (stereo partly drawn)
Ki [1]: 577 nM

Fc1ncccc1OC[C@@H]1C[C@H]2C[C@H]2N1
Ki [1]: 17.4 nM

Cc1ccc(OC[C@@H]2C[C@@H]3C[C@@H]3N2)cn1
Ki [1]: 1.38 nM

Cc1ncccc1OC[C@@H]1C[C@H]2C[C@H]2N1C
Ki [1]: 231 nM

c1ccc2ncc(OC[C@@H]3C[C@H]4C[C@H]4N3)cc2c1
Ki [1]: 600 nM

c1ccc(OC[C@@H]2C[C@H]3C[C@H]3N2)nc1
Ki [1]: > 10000 nM

Clc1cncc(OC[C@@H]2C[C@@H]3C[C@@H]3N2)c1
Ki [1]: 327 nM

Clc1cncc(OC[C@H]2NC[C@@H]3C[C@@H]32)c1
IC50 (Cytochrome P450 3A4): > 45000 nM
IC50 (Cytochrome P450 2D6): > 45000 nM
Ki [1]: 0.2 nM
metabolised at 0.5 h [6]: 12.1%
Ki [7]: 8.2 nM
metabolised at 0.5 h [10]: 6.04%

Cc1ncccc1OC[C@@H]1CCCN1 [POZANICLINE]
Ki [7]: > 10000 nM

Cl.Clc1ccc(OC[C@H]2C[C@@H]3C[C@@H]3N2)cn1
Kp at 24 h [2]: 3.83
Time (Rattus norvegicus [3]): 256.8 s
IC50 (Cytochrome P450 3A4): > 45000 nM
IC50 (Cytochrome P450 2D6): 17100 nM
half-life [4]: 1.6 h
AUC at 24 h [5]: 1770 ng·h/mL
Ki [1]: 39 nM
metabolised at 0.5 h [6]: 26.2%
Ki [7]: 6010 nM
bioavailability [8]: 35%
Time (Rattus norvegicus [9]): 279 s
metabolised at 0.5 h [10]: 42.2%
Cmax [11]: 1190 ng/mL

CN1[C@H](COc2cccnc2F)C[C@H]2C[C@H]21
Ki [1]: 31.9 nM

Clc1cncc(OC[C@]23C[C@H]2CCN3)c1
Ki [1]: 827 nM

Clc1nccnc1OC[C@@H]1C[C@H]2C[C@H]2N1
Ki [1]: 5110 nM

CN1[C@H](COc2cncc(Cl)c2)C[C@H]2C[C@H]21
Ki [1]: 0.37 nM

C=Cc1nnc(-c2cncc(OC[C@@H]3C[C@H]4C[C@H]4N3)c2)o1
Ki [1]: 2660 nM

C[C@@]12C[C@@H]1CC(COc1ccc(Cl)nc1)N2 (stereo partly drawn)
Ki [1]: 6880 nM

Brc1cncc(OC[C@@H]2C[C@@H]3C[C@@H]3N2)c1
Ki [1]: 2.9 nM

c1cc(OC[C@@H]2C[C@H]3C[C@H]3N2)ccn1
Ki [1]: > 10000 nM

Fc1ccc(OC[C@@H]2C[C@@H]3C[C@@H]3N2)cn1
Ki [1]: 1.2 nM

Cc1ccc(OC[C@@H]2C[C@H]3C[C@H]3N2)cn1
Ki [1]: 26.2 nM

c1cncc(OC[C@]23C[C@H]2CCN3)c1
Ki [1]: 242 nM

Cl.Clc1ccc(OC[C@@H]2CC[C@H]3C[C@H]3N2)cn1
Kp at 24 h [2]: 0.16
Time (Rattus norvegicus [3]): 238.6 s
IC50 (Cytochrome P450 3A4): > 45000 nM
IC50 (Cytochrome P450 2D6): 79000 nM
half-life [4]: 0.68 h
AUC at 24 h [5]: 4480 ng·h/mL
Ki [1]: 20.5 nM
metabolised at 0.5 h [6]: 72.8%
Ki [7]: > 10000 nM
bioavailability [8]: 48%
Time (Rattus norvegicus [9]): 264.9 s
metabolised at 0.5 h [10]: 98.9%
Cmax [11]: 3340 ng/mL

Clc1ccc(OC[C@]23C[C@H]2CCN3)cn1
Ki [1]: 341 nM

Cc1ccc(OC[C@@H]2C[C@H]3C[C@H]3N2C)cn1
Ki [1]: 20 nM

c1nnc(-c2cncc(OC[C@@H]3C[C@H]4C[C@H]4N3)c2)o1
Ki [1]: 131 nM

Clc1ncccc1OC[C@@H]1C[C@@H]2C[C@@H]2N1
Ki [1]: 1 nM

Cl.c1cncc(OC[C@@H]2CC[C@H]3C[C@H]3N2)c1
Kp at 24 h [2]: 0.32
IC50 (Cytochrome P450 3A4): > 45000 nM
IC50 (Cytochrome P450 2D6): > 45000 nM
half-life [4]: 0.01 h
Ki [1]: 11.4 nM
metabolised at 0.5 h [6]: 17%
Ki [7]: 68.4 nM
metabolised at 0.5 h [10]: 53.1%
Cmax [11]: 665 ng/mL

Cc1ncccc1OC[C@@H]1C[C@H]2C[C@H]2N1.Cl
Time (Rattus norvegicus [3]): 204.8 s
Ki [1]: > 10000 nM
Time (Rattus norvegicus [9]): 198.8 s

Clc1cc(OC[C@@H]2C[C@H]3C[C@H]3N2)c(Cl)nc1Cl
Ki [1]: 265 nM

c1cncc(N2CCC3(CCCN3)C2)c1 (stereo not drawn) [TC-2216]
Time (Rattus norvegicus [3]): 249.1 s
Ki [1]: 18.6 nM
Ki [7]: > 10000 nM
Time (Rattus norvegicus [9]): 183.9 s

Cl.c1cncc(OC[C@@H]2C[C@@H]3C[C@@H]3N2)c1
Kp at 24 h [2]: 3.07
IC50 (Cytochrome P450 3A4): 31900 nM
IC50 (Cytochrome P450 2D6): 30200 nM
half-life [4]: 1.08 h
AUC at 24 h [5]: 2710 ng·h/mL
Ki [1]: 1340 nM
metabolised at 0.5 h [6]: 3.9%
Ki [7]: 558 nM
bioavailability [8]: 87%
metabolised at 0.5 h [10]: 2.6%
Cmax [11]: 1500 ng/mL

Clc1cncc(OC[C@@H]2CC[C@H]3C[C@H]3N2)c1
Ki [1]: 31.3 nM

FC(F)(F)c1ccc(OC[C@@H]2C[C@H]3C[C@H]3N2)cn1
Ki [1]: 768 nM

CN1[C@H](COc2cncc(Br)c2)C[C@H]2C[C@H]21
Ki [1]: 4.2 nM

Cl.Fc1ccc(OC[C@@H]2C[C@H]3C[C@H]3N2)cn1
Kp at 24 h [2]: 2.38
Time (Rattus norvegicus [3]): 259.6 s
IC50 (Cytochrome P450 3A4): > 45000 nM
IC50 (Cytochrome P450 2D6): > 45000 nM
half-life [4]: 4.02 h
AUC at 24 h [5]: 15600 ng·h/mL
Ki [1]: 3.9 nM
metabolised at 0.5 h [6]: 5.1%
Ki [7]: > 10000 nM
bioavailability [8]: 96%
Time (Rattus norvegicus [9]): 263.5 s
metabolised at 0.5 h [10]: 10.7%
Cmax [11]: 3760 ng/mL

OCCCCC#Cc1cncc(OC[C@@H]2C[C@H]3C[C@H]3N2)c1
Ki [1]: 2.7 nM

Cl.Clc1ccc(OC[C@@H]2C[C@@H]3C[C@@H]3N2)cn1
Kp at 24 h [2]: 2.14
IC50 (Cytochrome P450 3A4): > 45000 nM
IC50 (Cytochrome P450 2D6): > 45000 nM
half-life [4]: 2.73 h
AUC at 24 h [5]: 1620 ng·h/mL
Ki [1]: 6.4 nM
metabolised at 0.5 h [6]: 36%
Ki [7]: 1020 nM
bioavailability [8]: 66%
metabolised at 0.5 h [10]: 13.6%
Cmax [11]: 638 ng/mL

Brc1ccc(OC[C@@H]2C[C@H]3C[C@H]3N2)cn1
Ki [1]: 46.5 nM

Clc1ccc(OC[C@H]2C[C@H]3C[C@H]3N2)cn1
IC50 (Cytochrome P450 3A4): > 45000 nM
IC50 (Cytochrome P450 2D6): 32100 nM
Ki [1]: 329 nM
metabolised at 0.5 h [6]: 69.6%
Ki [7]: 525 nM
metabolised at 0.5 h [10]: 18.3%

CN1[C@H](COc2ccc(Cl)nc2)C[C@H]2C[C@H]21
Ki [1]: 3.4 nM

Clc1ccc(OC[C@@H]2C[C@H]3C[C@H]3N2)nn1
Ki [1]: 4740 nM

CC(=O)N1[C@H](COc2ccc(Cl)nc2)C[C@H]2C[C@H]21
Ki [1]: > 10000 nM

c1cnc(OC[C@@H]2C[C@H]3C[C@H]3N2)cn1
Ki [1]: > 10000 nM
